Experimental data reported in patent US20170009266A1, “PROCESS FOR THE ATTACHMENT OF A GALNAC MOIETY COMPRISING A (HETERO)ARYL GROUP TO A GLCNAC MOIETY, AND PRODUCT OBTAINED THEREBY” (SYNAFFIX B.V., priority 2014, published 2017).
Numbering of substitutions follows the chain as printed.

Columns and labels:
Type in all cases: biochemical, bovine
Gal-T1(Y289M,C342T) = target: T1, Gal-T1(Y289M,C342T) (Bos taurus, UniProt P08037, C342T/Y289M); experiment: Glycosyltransfer to trimmed trastuzumab with Gal-T1(Y289M,C342T) expressed in CHO; conditions: trimmed trastuzumab 10 mg/mL; UDP derivative 5 mM; enzyme 1.0 mg/mL; pH 8.0, 30° C. overnight
T1 construct: host or cells: CHO K1
T1 sequence (P08037 74-402 V158I/P187L/I205M/L206V/Y289M/C342T): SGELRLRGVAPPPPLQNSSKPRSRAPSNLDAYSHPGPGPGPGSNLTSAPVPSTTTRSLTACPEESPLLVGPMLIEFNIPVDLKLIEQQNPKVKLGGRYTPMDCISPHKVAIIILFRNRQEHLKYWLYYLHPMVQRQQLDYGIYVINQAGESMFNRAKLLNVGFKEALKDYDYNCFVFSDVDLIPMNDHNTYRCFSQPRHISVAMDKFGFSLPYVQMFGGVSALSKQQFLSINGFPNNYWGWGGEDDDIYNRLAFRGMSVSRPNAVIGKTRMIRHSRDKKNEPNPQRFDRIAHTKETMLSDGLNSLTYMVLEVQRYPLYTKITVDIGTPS
Procedure: A solution of 20 μg (modified) IgG was incubated for 1 hour at 37° C. with Fabricator™ (commercially available from Genovis, Lund, Sweden) (1.25 U/μL) in phosphate-buffered saline (PBS) pH 6.6 in a total volume of 10 μL. Fabricator™-digested samples were washed trice with milliQ using an Amicon Ultra-0.5, Ultracel-10 Membrane (Millipore) resulting in a final sample volume of approximately 40 μL. The Fc/2 fragment was analyzed by electrospray ionization time-of-flight (ESI-TOF) on a JEOL AccuTOF. Deconvoluted spectra were obtained using Magtran software.
A set of Gal-T 1 mutants encoding residues 74-402 of bovine Gal-T 1 were transiently expressed in CHO K1 cells by Evitria (Zurich, Switzerland) which include the Gal-T1 single mutants Y289L (represented by SEQ ID NO: 26), Y289F (represented by SEQ ID NO: 27), Y289M (represented by SEQ ID NO: 28), Y289V (represented by SEQ ID NO: 29), Y289A (represented by SEQ ID NO: 30), and Y289G (represented by SEQ ID NO: 31), and the Gal-T1 double mutants Y289L,C342T (represented by SEQ ID NO: 32), and Y289M,C342T (represented by SEQ ID NO: 33). The mutants were purified using a cation exchange column (Source 15S HR16/10 column, GE Healthcare) as described above. Purified proteins were analyzed by SDS-PAGE. […]

Gal-T1(Y289M) = target: T2, Gal-T1(Y289M) (Bos taurus, UniProt P08037, I205M/L206V/P187L/V158I/Y289M); experiment: Glycosyltransfer to trimmed trastuzumab with Gal-T1(Y289M) expressed in CHO; conditions: trimmed trastuzumab 10 mg/mL; UDP derivative 5 mM; enzyme 0.5 mg/mL; pH 8.0, 30° C. overnight
T2 construct: host or cells: CHO K1
T2 sequence (P08037 74-402 V158I/P187L/I205M/L206V/Y289M): T1 sequence (P08037 74-402 V158I/P187L/I205M/L206V/Y289M/C342T) with T269C
Source text: (§1) A set of Gal-T 1 mutants encoding residues 74-402 of bovine Gal-T 1 were transiently expressed in CHO K1 cells by Evitria (Zurich, Switzerland) which include the Gal-T1 single mutants Y289L (represented by SEQ ID NO: 26), Y289F (represented by SEQ ID NO: 27), Y289M (represented by SEQ ID NO: 28), Y289V (represented by SEQ ID NO: 29), Y289A (represented by SEQ ID NO: 30), and Y289G (represented by SEQ ID NO: 31), and the Gal-T1 double mutants Y289L,C342T (represented by SEQ ID NO: 32), and Y289M,C342T (represented by SEQ ID NO: 33). The mutants were purified using a cation exchange column (Source 15S HR16/10 column, GE Healthcare) as described above. Purified proteins were analyzed by SDS-PAGE.
(§2) Trimmed trastuzumab (10 mg/mL, […] obtained by Endo S treatment of trastuzumab, was incubated with the 4-azido-3,5-difluorobenzoyl derivative of UDP-galactosamine (23, 5 mM) and one of the Gal-T1 single mutants Y289L, Y289M, Y289A or Y289G (expressed in CHO as described above) (0.5 mg/mL) in 10 mM MnCl2 and 25 mM Tris-HCl pH 8.0 at 30° C. overnight. Mass spectral analysis of the reduced sample indicated a partial conversion of the core GlcNac(Fuc)-substituted trastuzumab heavy chain (49504 Da) into product 30 (49818 to 49825 Da, 20 to 50% of total heavy chain depending on the Gal-T1 mutant used), resulting from transfer of 23 to core GlcNAc(Fuc)-substituted trastuzumab heavy chain. […]

Gal-T1(Y289G) = target: T3, Gal-T1(Y289G) (Bos taurus, UniProt P08037, I205M/L206V/P187L/V158I/Y289G); experiment: Glycosyltransfer to trimmed trastuzumab with Gal-T1(Y289G) expressed in CHO; conditions: trimmed trastuzumab 10 mg/mL; UDP derivative 5 mM; enzyme 0.5 mg/mL; pH 8.0, 30° C. overnight
T3 construct: host or cells: CHO K1
T3 sequence (P08037 74-402 V158I/P187L/I205M/L206V/Y289G): T1 sequence (P08037 74-402 V158I/P187L/I205M/L206V/Y289M/C342T) with M216G, T269C
Source text: as §1, §2

[N-]=[N+]=Nc1c(F)cc(C(=O)N[C@H]2[C@@H](OP(=O)(O)OP(=O)(O)OC[C@H]3O[C@@H](n4ccc(=O)[nH]c4=O)[C@H](O)[C@@H]3O)O[C@H](CO)[C@H](O)[C@@H]2O)cc1F [Compound 23, 4-azido-3,5-difluorobenzoyl Derivative of UDP-GalNH2]
conversion of core GlcNAc(Fuc)-substituted trastuzumab into product (Gal-T1(Y289M,C342T)): complete conversion
observed conversion (Gal-T1(Y289M)): approximately 50%
observed conversion (Gal-T1(Y289G)): approximately 20%
